Molecular target: T1, human kinase Mps-1 (Homo sapiens, UniProt P33981)
T1 construct: N-terminally GST-tagged human full length recombinant Mps-1 kinase; purchased Invitrogen, Karslruhe, Germany PV4071
T1 sequence (P33981 1-857): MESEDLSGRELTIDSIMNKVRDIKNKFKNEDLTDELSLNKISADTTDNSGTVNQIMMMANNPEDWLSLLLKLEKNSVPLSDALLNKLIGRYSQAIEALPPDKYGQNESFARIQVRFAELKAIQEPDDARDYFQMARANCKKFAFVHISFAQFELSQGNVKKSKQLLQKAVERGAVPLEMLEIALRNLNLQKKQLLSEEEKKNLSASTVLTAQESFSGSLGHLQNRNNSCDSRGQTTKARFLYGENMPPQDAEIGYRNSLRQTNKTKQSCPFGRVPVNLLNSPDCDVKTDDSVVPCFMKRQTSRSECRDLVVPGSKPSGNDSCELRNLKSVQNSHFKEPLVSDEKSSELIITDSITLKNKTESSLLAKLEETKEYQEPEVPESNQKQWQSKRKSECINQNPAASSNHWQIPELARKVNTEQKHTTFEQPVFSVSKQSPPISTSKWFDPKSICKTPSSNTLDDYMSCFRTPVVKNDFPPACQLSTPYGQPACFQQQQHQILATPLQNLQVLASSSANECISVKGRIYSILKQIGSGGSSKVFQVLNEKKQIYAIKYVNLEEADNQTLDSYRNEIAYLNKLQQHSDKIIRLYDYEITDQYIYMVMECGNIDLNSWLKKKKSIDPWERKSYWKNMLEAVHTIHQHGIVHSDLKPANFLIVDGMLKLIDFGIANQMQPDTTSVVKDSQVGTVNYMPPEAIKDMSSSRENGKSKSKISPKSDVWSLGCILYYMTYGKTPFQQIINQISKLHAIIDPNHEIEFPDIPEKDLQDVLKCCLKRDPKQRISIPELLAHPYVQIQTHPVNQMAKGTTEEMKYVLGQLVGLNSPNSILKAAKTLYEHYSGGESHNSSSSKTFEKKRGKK
Assay: Mps-1 Kinase Assay (TR-FRET)
Assay type: biochemical
Conditions: N-terminally GST-tagged human full length recombinant Mps-1; 10 μM ATP; 1 μM biotinylated peptide substrate; 60 min at 22° C.; read-out: MPS1 Inhibition, IC50 in M

IC50 | SMILES
290 nM | COc1ccccc1Nc1nc2ccc(-c3cccc(NC(=O)c4ccccc4)c3)cn2n1 [Example 8.7, N-(3-{2-[(2-methoxyphenyl)amino][1,2,4]triazolo[1,5-a]pyridin-6-yl}phenyl)benzamide]
6.5 nM | COc1ccccc1Nc1nc2ccc(-c3cccc(C(=O)NC4CC4)c3)cn2n1 [Example 10.1, N-cyclopropyl-3-{2-[(2-methoxyphenyl)amino][1,2,4]triazolo[1,5-a]pyridin-6-yl}benzamide]
59 nM | CN1CCN(C(=O)c2cccc(-c3ccc4nc(Nc5ccccc5C#N)nn4c3)c2)CC1 [Example 9.1, 2-[(6-{3-[(4-methylpiperazin-1-yl)carbonyl]phenyl}[1,2,4]triazolo[1,5-a]pyridin-2-yl)amino]benzonitrile]
45 nM | COc1ccccc1Nc1nc2ccc(-c3cccc(C(=O)NCc4ccccc4)c3)cn2n1 [Example 10.2, N-benzyl-3-{2-[(2-methoxyphenyl)amino][1,2,4]triazolo[1,5-a]pyridin-6-yl}benzamide]
3300 nM | O=C(CN1CCOCC1)Nc1ccc(-c2ccc3nc(Nc4ccccc4C(F)(F)F)nn3c2)cc1 [Example 5.5, 2-(morpholin-4-yl)-N-[4-(2-{[2-(trifluoromethyl)phenyl]amino}[1,2,4]triazolo[1,5-a]pyridin-6-yl)phenyl]acetamide]
640 nM | COc1ccccc1Nc1nc2ccc(-c3cccc(NC(=O)N4CCC(N(C)C)CC4)c3)cn2n1 [Example 8.11, 4-(dimethylamino)-N-(3-{2-[(2-methoxyphenyl)amino][1,2,4]triazolo[1,5-a]pyridin-6-yl}phenyl)piperidine-1-carboxamide]
440 nM | COc1ccccc1Nc1nc2ccc(-c3cccc(NC(=O)Nc4ccccc4)c3)cn2n1 [Example 8.5, 1-(3-{2-[(2-methoxyphenyl)amino][1,2,4]triazolo[1,5-a]pyridin-6-yl}phenyl)-3-phenylurea]
14 nM | NC(C(=O)Nc1ccc(-c2ccc3nc(Nc4ccccc4C(F)(F)F)nn3c2)cc1)c1ccccc1 (racemic) [Example 5.7, rac-2-amino-2-phenyl-N-[4-(2-{[2-(trifluoromethyl)phenyl]amino}[1,2,4]triazolo[1,5-a]pyridin-6-yl)phenyl]acetamide]

Source: patent publication US9676766B2, “Triazolopyridines” (BAYER INTELLECTUAL PROPERTY GMBH, priority 2009, dated 2017)
